One compound from patent US6906097B2, “8-azaprostaglandin analogs as agents for lowering intraocular pressure” (Allergan, Inc., priority 2002, dated 2005) can be followed below.

Assay [1] deals with T1, hEP3A (Homo sapiens, UniProt P43115).
T1 construct: expressed in transfected cells
T1 sequence (P43115 1-390): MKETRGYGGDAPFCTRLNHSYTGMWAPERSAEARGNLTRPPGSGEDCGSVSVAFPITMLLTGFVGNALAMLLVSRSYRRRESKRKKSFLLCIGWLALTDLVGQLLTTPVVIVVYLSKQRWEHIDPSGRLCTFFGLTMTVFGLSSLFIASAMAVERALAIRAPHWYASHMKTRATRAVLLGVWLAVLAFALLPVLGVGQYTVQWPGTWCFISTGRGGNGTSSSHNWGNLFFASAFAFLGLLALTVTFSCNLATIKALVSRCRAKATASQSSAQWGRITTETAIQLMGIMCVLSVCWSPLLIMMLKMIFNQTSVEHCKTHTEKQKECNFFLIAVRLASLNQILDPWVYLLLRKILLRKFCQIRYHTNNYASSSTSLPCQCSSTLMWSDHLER
The assay can be described thus: Functional data, human recombinant EP3A receptor stable transfectants. The assay is classed as cell-based. Here is the method: (§1) Human Recombinant EP1, EP2, EP3, EP4, FP, TP, IP and DP Receptors: Stable Transfectants
(§2) Plasmids encoding the human EP1, EP2, EP3, EP4, FP, TP, IP and DP receptors were prepared by cloning the respective coding sequences into the eukaryotic expression vector pCEP4 (Invitrogen). The pCEP4 vector contains an Epstein Barr virus (EBV) origin of replication, which permits episomal replication in primate cell lines expressing EBV nuclear antigen (EBNA-1). It also contains a hygromycin resistance gene that is used for eukaryotic selection. […] HEK-293 cells were grown in DMEM with 10% fetal bovine serum (FBS), 250 μg ml^−1 G418 (Life Technologies) and 200 μg ml^−1 gentamicin or penicillin/streptomycin.
(§3) For transfection, the cells were grown to 50-60% confluency on 10 cm plates. The plasmid pCEP4 incorporating cDNA inserts for the respective human prostanoid receptor (20 μg) was added to 500 μl of 250 mM CaCl2. […] After 30 min, 9 ml DMEM were added to the mixture. The DNA/DMEM/calcium phosphate mixture was then added to the cells, which had been previously rinsed with 10 ml PBS. The cells were then incubated for 5 hr at 37° C. in humidified 95% air/5% CO2. The calcium phosphate solution was then removed and the cells were treated with 10% glycerol in DMEM for 2 min. The glycerol solution was then replaced by DMEM with 10% FBS. The cells were incubated overnight and the medium was replaced by DMEM/10% FBS containing 250 μg ml^−1 G418 and penicillin/streptomycin. The following day hygromycin B was added to a final concentration of 200 μg ml^−1.
(§4) Ten days after transfection, hygromycin B resistant clones were individually selected and transferred to a separate well on a 24 well plate. At confluence each clone was transferred to one well of a 6 well plate, and then expanded in a 10 cm dish. Cells were maintained under continuous hygromycin selection until use.

The target in assay [2] is T2, hEP4 (Homo sapiens, UniProt P35408).
T2 construct: expressed in transfected cells
The assay can be described thus: Functional data, human recombinant EP4 receptor stable transfectants. It counts as cell-based. As to the method:
as §1, §2, §3, §4

In assay [3] the target is T3, hEP3D (Homo sapiens, UniProt P43115).
T3 construct: expressed in transfected cells; host or cells: COS-7, transient transfection, plasma membrane fraction
T3 sequence (P43115 1-374 isoform P43115-4): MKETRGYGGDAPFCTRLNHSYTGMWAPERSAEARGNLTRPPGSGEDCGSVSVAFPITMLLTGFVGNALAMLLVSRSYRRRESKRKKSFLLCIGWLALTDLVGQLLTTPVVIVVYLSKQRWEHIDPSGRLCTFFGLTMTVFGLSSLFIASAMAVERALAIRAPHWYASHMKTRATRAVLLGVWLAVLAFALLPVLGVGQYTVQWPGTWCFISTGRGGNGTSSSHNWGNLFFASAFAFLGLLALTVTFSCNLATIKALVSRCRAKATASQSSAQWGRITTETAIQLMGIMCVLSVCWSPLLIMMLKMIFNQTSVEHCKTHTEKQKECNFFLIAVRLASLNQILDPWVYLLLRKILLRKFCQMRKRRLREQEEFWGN
The experiment in a line: Radioligand binding, hEP3D. To be noted: [3H]PGE2 competition. Here is the method:
For radioligand binding on the transient transfectants, plasma membrane fraction preparation was as follows. COS-7 cells were washed with TME buffer, scraped from the bottom of the flasks, and homogenized for 30 sec using a Brinkman PT 10/35 polytron. TME buffer was added to achieve a final 40 ml volume in the centrifuge tubes. The composition of TME is […]; 10N HCl is added to achieve a pH of 7.4.
The cell homogenate was centrifuged at 19000 rpm for 20 min at 4° C. using a Beckman Ti-60 rotor. The resultant pellet was resuspended in TME buffer to give a final 1 mg/ml protein concentration, as determined by Biorad assay. Radioligand binding assays were performed in a 200 μl volume.
The binding of [^3H] PGE2 (specific activity 165 […]) at EP3D, receptors and [^3H]-SQ29548 (specific activity 41.5 Ci mmol^−1) at TP receptors were determined in duplicate in at least three separate experiments. Radiolabeled PGE2 was purchased from Amersham, radiolabeled SQ29548 was purchased from New England Nuclear. […] Competition studies were performed using a final concentration of 2.5 or 5 nM [^3H]-PGE2, or 10 nM [^3H]-SQ 29548 and non-specific binding determined with 10 μM of the respective unlabeled prostanoid. […]

T2 sequence (P35408 whole entry): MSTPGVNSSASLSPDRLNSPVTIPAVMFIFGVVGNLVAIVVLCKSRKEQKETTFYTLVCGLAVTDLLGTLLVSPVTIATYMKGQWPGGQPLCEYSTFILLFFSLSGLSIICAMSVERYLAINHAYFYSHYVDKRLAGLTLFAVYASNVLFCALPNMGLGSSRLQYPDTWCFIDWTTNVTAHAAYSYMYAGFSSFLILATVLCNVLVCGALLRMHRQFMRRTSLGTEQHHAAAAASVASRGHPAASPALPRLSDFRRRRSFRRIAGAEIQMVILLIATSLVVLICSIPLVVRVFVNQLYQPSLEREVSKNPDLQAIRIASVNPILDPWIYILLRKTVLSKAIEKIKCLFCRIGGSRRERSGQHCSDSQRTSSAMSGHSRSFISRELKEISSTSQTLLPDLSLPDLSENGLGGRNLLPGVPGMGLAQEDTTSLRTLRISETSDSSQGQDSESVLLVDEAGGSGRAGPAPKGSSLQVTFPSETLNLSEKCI

Regarding `O=C(O)CCCCCCN1C(=O)CC[C@@H]1CCC(O)Cc1cccc(Cl)c1` (stereo partly drawn) [Example 1, 7-[2S-[3R-Hydroxy-4-(chloro-phenyl)-butyl]-5-oxo-pyrrolidin-1-yl]-heptanoic acid], the EC50 – broadly, the concentration needed to bring the measured effect to its halfway point – in assay [1] amounted to 608 nM; in assay [2], 0.7 nM. The concentration for half-maximal inhibition (IC50) (in general, the midpoint of a concentration-inhibition curve) in assay [3] was found to be 12 nM.
